Test results taken from ChEMBL document CHEMBL1806461, “Identification of MK-5710 ((8aS)-8a-methyl-1,3-dioxo-2-[(1S,2R)-2-phenylcyclopropyl]-N-(1-phenyl-1H-pyrazol-5-yl)hexahydroimid azo[1,5-a]pyrazine-7(1H)-carboxamide), a potent smoothened antagonist for use in Hedgehog pathway dependent malignancies, part 1” (Bioorg Med Chem Lett, 2011).
Active and inactive are the calls of the source. The rule behind the calls is not given here.

What was measured:
Protein smoothened [1] = target: T1, Protein smoothened (Homo sapiens, UniProt Q99835); assay: Displacement of [125I]-PA cyclopamine from smoothened expressed in african green monkey COS-1 cells after 10 mins by autoradiography; type: cell-based
T1 sequence (Q99835 whole entry): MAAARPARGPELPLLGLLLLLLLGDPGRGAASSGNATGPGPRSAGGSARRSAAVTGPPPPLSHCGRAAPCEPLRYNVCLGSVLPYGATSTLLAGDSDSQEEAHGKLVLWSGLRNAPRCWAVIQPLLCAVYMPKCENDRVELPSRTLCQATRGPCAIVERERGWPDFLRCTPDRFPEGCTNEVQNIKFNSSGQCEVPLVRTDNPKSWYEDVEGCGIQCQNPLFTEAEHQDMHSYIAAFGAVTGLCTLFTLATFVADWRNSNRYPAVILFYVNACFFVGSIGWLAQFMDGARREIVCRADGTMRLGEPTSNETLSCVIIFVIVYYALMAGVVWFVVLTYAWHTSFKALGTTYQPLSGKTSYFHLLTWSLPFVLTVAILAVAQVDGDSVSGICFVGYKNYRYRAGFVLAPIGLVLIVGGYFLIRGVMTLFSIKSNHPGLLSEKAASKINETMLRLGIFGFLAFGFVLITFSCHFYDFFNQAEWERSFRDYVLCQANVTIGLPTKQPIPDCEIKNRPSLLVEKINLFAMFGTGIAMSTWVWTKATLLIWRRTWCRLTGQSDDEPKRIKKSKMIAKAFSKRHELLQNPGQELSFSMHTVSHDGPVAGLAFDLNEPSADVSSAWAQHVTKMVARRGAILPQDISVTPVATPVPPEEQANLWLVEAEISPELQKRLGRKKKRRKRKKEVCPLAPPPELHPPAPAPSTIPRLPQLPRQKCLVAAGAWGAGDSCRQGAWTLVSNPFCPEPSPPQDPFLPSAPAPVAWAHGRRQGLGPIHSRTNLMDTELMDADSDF

Protein smoothened [2] = target: T1, Protein smoothened; settings: Shh Light II; 2 uM
Description: Antagonist activity at smoothened expressed in mouse Shh Light2 cells co-expressing Gli-dependent reporter gene assessed as inhibition of Hh pathway at 2 uM

Shh Light II = assay: Cytotoxicity against mouse Shh Light2 cells assessed as cell viability at 2.5 uM; type: cell-based
[3] = Growth inhibition of Ptch +/- mouse medulloblastoma cells; type: functional; settings: Medulloblastoma cell
[4] = Intrinsic clearance in rat liver microsomes assessed per mg of protein; type: ADME, Microsome

Compound	IC50 (Protein smoothened [1])	also measured
O=C(Nc1ccccc1-c1ccccc1)c1ccc2c(c1)C(=O)N([C@H]1C[C@@H]1c1ccccc1)C2=O	3200 nM	–
O=C(Nc1ccccc1-c1ccsc1)N1CCN2C(=O)N([C@H]3C[C@@H]3c3ccccc3)C(=O)C2C1 (mixture of isomers)	220 nM	–
O=C(Nc1ccccc1-c1cnco1)N1CCN2C(=O)N([C@H]3C[C@@H]3c3ccccc3)C(=O)C2C1 (mixture of isomers)	1800 nM	–
O=C(Nc1cccnc1-c1ccccc1)N1CCN2C(=O)N([C@H]3C[C@@H]3c3ccccc3)C(=O)C2C1 (mixture of isomers)	12 nM	–
O=C(Nc1ccncc1-c1ccccc1)N1CCN2C(=O)N([C@H]3C[C@@H]3c3ccccc3)C(=O)C2C1 (mixture of isomers)	88 nM	–
O=C(Nc1cccnc1-c1ccc(Cl)cc1)N1CCN2C(=O)N([C@H]3C[C@@H]3c3ccccc3)C(=O)C2C1 (mixture of isomers)	680 nM	–
O=C(Nc1cccnc1-c1cccc(Cl)c1)N1CCN2C(=O)N([C@H]3C[C@@H]3c3ccccc3)C(=O)C2C1 (mixture of isomers)	19 nM	–
O=C(Nc1cccnc1-c1ccccc1Cl)N1CCN2C(=O)N([C@H]3C[C@@H]3c3ccccc3)C(=O)C2C1 (mixture of isomers)	140 nM	–
O=C(Nc1cccnc1-c1cccc(C(F)(F)F)c1)N1CCN2C(=O)N([C@H]3C[C@@H]3c3ccccc3)C(=O)C2C1 (mixture of isomers)	160 nM	–
COc1cccc(-c2ncccc2NC(=O)N2CCN3C(=O)N([C@H]4C[C@@H]4c4ccccc4)C(=O)C3C2)c1 (mixture of isomers)	47 nM	–
O=C(Nc1cccnc1-c1ccsc1)N1CCN2C(=O)N([C@H]3C[C@@H]3c3ccccc3)C(=O)C2C1 (mixture of isomers)	88 nM	–
Cn1cc(-c2ncccc2NC(=O)N2CCN3C(=O)N([C@H]4C[C@@H]4c4ccccc4)C(=O)C3C2)cn1 (mixture of isomers)	620 nM	–
O=C(Nc1ccnn1-c1ccccc1)N1CCN2C(=O)N([C@H]3C[C@@H]3c3ccccc3)C(=O)C2C1 (mixture of isomers)	13 nM	–
O=C(Nc1ccccc1-c1ccccc1)N1CCN2C(=O)N([C@H]3C[C@@H]3c3ccccc3)CC2C1 (mixture of isomers)	1400 nM	–
O=C(Nc1ccnn1-c1ccccc1)N1CCN2C(=O)N([C@H]3C[C@@H]3c3ccccc3)C(=O)CC2C1 (mixture of isomers)	7800 nM	–
O=C(Nc1ccnn1-c1ccccc1)N1CCN2CC(=O)N([C@H]3C[C@@H]3c3ccccc3)C(=O)C2C1 (mixture of isomers)	5100 nM	–
COC(=O)N1CCN2C(=O)N([C@H]3C[C@@H]3c3ccccc3)C(=O)C2C1 (mixture of isomers)	> 1500 nM	–
CC(=O)N1CCN2C(=O)N([C@H]3C[C@@H]3c3ccccc3)C(=O)C2C1 (mixture of isomers)	> 1500 nM	–
O=C(C1CCCCC1)N1CCN2C(=O)N([C@H]3C[C@@H]3c3ccccc3)C(=O)C2C1 (mixture of isomers)	> 1500 nM	–

Compound	IC50 (Protein smoothened [1])	also measured
CC(C)(C)C(=O)N1CCN2C(=O)N([C@H]3C[C@@H]3c3ccccc3)C(=O)C2C1 (mixture of isomers)	4000 nM	–
O=C1C2CN(CC3CCCCC3)CCN2C(=O)N1[C@H]1C[C@@H]1c1ccccc1 (mixture of isomers)	> 2500 nM	–
CN(C)C(=O)N1CCN2C(=O)N([C@H]3C[C@@H]3c3ccccc3)C(=O)C2C1 (mixture of isomers)	> 2500 nM	inhibition (Protein smoothened [2]): Active; Activity (Shh Light II): Non-toxic
O=C(NCc1ccco1)N1CCN2C(=O)N([C@H]3C[C@@H]3c3ccccc3)C(=O)C2C1 (mixture of isomers)	> 2500 nM	–
O=C(NC1CCCCC1)N1CCN2C(=O)N([C@H]3C[C@@H]3c3ccccc3)C(=O)C2C1 (mixture of isomers)	250 nM	–
CCCCCCNC(=O)N1CCN2C(=O)N([C@H]3C[C@@H]3c3ccccc3)C(=O)C2C1 (mixture of isomers)	380 nM	–
CCCCN(CCCC)C(=O)N1CCN2C(=O)N([C@H]3C[C@@H]3c3ccccc3)C(=O)C2C1 (mixture of isomers)	920 nM	–
O=C(Nc1cccc(Cl)c1Cl)N1CCN2C(=O)N([C@H]3C[C@@H]3c3ccccc3)C(=O)C2C1 (mixture of isomers)	220 nM	CC50 [3]: 3.3 nM; microsomal CLint [4]: 180 µL/min/mg
O=C(Nc1cc(Cl)cc(Cl)c1)N1CCN2C(=O)N([C@H]3C[C@@H]3c3ccccc3)C(=O)C2C1 (mixture of isomers)	280 nM	–
O=C(Nc1c(Cl)cccc1Cl)N1CCN2C(=O)N([C@H]3C[C@@H]3c3ccccc3)C(=O)C2C1 (mixture of isomers)	280 nM	–
O=C(Nc1ccc(F)cc1Cl)N1CCN2C(=O)N([C@H]3C[C@@H]3c3ccccc3)C(=O)C2C1 (mixture of isomers)	1100 nM	–
O=C(Nc1ccc2c(c1)OCO2)N1CCN2C(=O)N([C@H]3C[C@@H]3c3ccccc3)C(=O)C2C1 (mixture of isomers)	700 nM	–
O=C(Nc1ccccc1-c1ccccc1)N1CCN2C(=O)N([C@H]3C[C@@H]3c3ccccc3)C(=O)C2C1 (mixture of isomers)	94 nM	CC50 [3]: 12 nM; microsomal CLint [4]: > 300 µL/min/mg
CN(C(=O)N1CCN2C(=O)N([C@H]3C[C@@H]3c3ccccc3)C(=O)C2C1)c1ccccc1-c1ccccc1 (mixture of isomers)	1000 nM	–
O=C(Nc1ccc(-c2ccccc2)cc1)N1CCN2C(=O)N([C@H]3C[C@@H]3c3ccccc3)C(=O)C2C1 (mixture of isomers)	890 nM	–
O=C(Nc1ccccc1-c1ccccc1)N1CCN2C(=O)N([C@H]3C[C@H]3c3ccccc3)C(=O)C2C1 (mixture of isomers)	> 2500 nM	–
COC(=O)c1cccc(NC(=O)N2CCN3C(=O)N([C@H]4C[C@@H]4c4ccccc4)C(=O)C3C2)c1Cl (mixture of isomers)	1100 nM	–
Cc1c(Cl)cccc1NC(=O)N1CCN2C(=O)N([C@H]3C[C@@H]3c3ccccc3)C(=O)C2C1 (mixture of isomers)	460 nM	–
Cc1cccc(Cl)c1NC(=O)N1CCN2C(=O)N([C@H]3C[C@@H]3c3ccccc3)C(=O)C2C1 (mixture of isomers)	770 nM	–

Compound	IC50 (Protein smoothened [1])	also measured
O=C(Nc1ccc(F)c(Cl)c1Cl)N1CCN2C(=O)N([C@H]3C[C@@H]3c3ccccc3)C(=O)C2C1 (mixture of isomers)	480 nM	–
O=C(Nc1c(Cl)cc(F)cc1Cl)N1CCN2C(=O)N([C@H]3C[C@@H]3c3ccccc3)C(=O)C2C1 (mixture of isomers)	310 nM	–
O=C(Nc1c(Cl)cc(OC(F)(F)F)cc1Cl)N1CCN2C(=O)N([C@H]3C[C@@H]3c3ccccc3)C(=O)C2C1 (mixture of isomers)	130 nM	–
O=C(Nc1c(Cl)cc(C(F)(F)F)cc1Cl)N1CCN2C(=O)N([C@H]3C[C@@H]3c3ccccc3)C(=O)C2C1 (mixture of isomers)	280 nM	–
CS(=O)(=O)c1cc(Cl)c(NC(=O)N2CCN3C(=O)N([C@H]4C[C@@H]4c4ccccc4)C(=O)C3C2)c(Cl)c1 (mixture of isomers)	77 nM	–
N#Cc1cc(Cl)c(NC(=O)N2CCN3C(=O)N([C@H]4C[C@@H]4c4ccccc4)C(=O)C3C2)c(Cl)c1 (mixture of isomers)	62 nM	–
Cc1cc(C#N)cc(Cl)c1NC(=O)N1CCN2C(=O)N([C@H]3C[C@@H]3c3ccccc3)C(=O)C2C1 (mixture of isomers)	84 nM	–
CC(C)c1ccccc1NC(=O)N1CCN2C(=O)N([C@H]3C[C@@H]3c3ccccc3)C(=O)C2C1 (mixture of isomers)	210 nM	–
O=C(Nc1ccccc1C(F)(F)F)N1CCN2C(=O)N([C@H]3C[C@@H]3c3ccccc3)C(=O)C2C1 (mixture of isomers)	890 nM	–
N#Cc1ccccc1NC(=O)N1CCN2C(=O)N([C@H]3C[C@@H]3c3ccccc3)C(=O)C2C1 (mixture of isomers)	> 2500 nM	–
COc1ccccc1NC(=O)N1CCN2C(=O)N([C@H]3C[C@@H]3c3ccccc3)C(=O)C2C1 (mixture of isomers)	1700 nM	–
O=C(Nc1ccccc1-c1ccccc1)N1CCN2C(=O)N(CCc3ccccc3)C(=O)C2C1 (racemic)	2000 nM	–
O=C(Nc1ccccc1-c1ccccc1)N1CCN2C(=O)N(Cc3ccccc3)C(=O)C2C1 (racemic)	> 2500 nM	–
O=C(Nc1ccccc1-c1ccccc1)N1CCN2C(=O)N(c3cccc4ccccc34)C(=O)C2C1 (racemic)	> 2500 nM	–
O=C(Nc1ccccc1-c1ccccc1)N1CCN2C(=O)N(c3cccc(-c4ccccc4)c3)C(=O)C2C1 (racemic)	> 2500 nM	–
CCCCN1C(=O)C2CN(C(=O)Nc3ccccc3-c3ccccc3)CCN2C1=O (racemic)	> 2500 nM	–
O=C(Nc1ccccc1-c1ccccc1)N1CCN2C(=O)N(C3CC34CCCCC4)C(=O)C2C1 (racemic)	> 2500 nM	–
O=C(Nc1ccccc1-c1ccccc1)N1CCN2C(=O)N([C@H]3C[C@H](c4ccccc4)C3)C(=O)C2C1 (mixture of isomers)	440 nM	–
O=C(Nc1ccccc1-c1ccccc1)N1CCN2C(=O)N(C3Cc4ccccc4C3)C(=O)C2C1 (racemic)	880 nM	–
